# pIC50: −log10 of the molar value.
# Target: T1, human full-length MKNK1 (Homo sapiens, UniProt Q9BUB5, T385D)
# T1 construct: purchased Carna Biosciences 02-145; host or cells: insect cells (baculovirus expression system)
# Assay: MKNK1 kinase high ATP assay (TR-FRET)
# Assay type: biochemical
# Details: high ATP (2 mM final), 15 min preincubation with enzyme, GST-MKNK1 (T344D)
# Method in brief: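 GST-tagged full-length human MKNK1 from insect cells, preincubated 15 min with compound at 22° C in HEPES pH 7.5/MgCl2/DTT buffer, then reacted 30 min with 2 mM ATP and 0.06 μM biotinylated peptide (final). Phosphopeptide detected by TR-FRET (anti-pS6 pSer236/Eu-ProteinG, streptavidin-XL665), 665/620 ratio normalised to no-enzyme and no-inhibitor controls.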
# T1 sequence (Q9BUB5 1-424 isoform Q9BUB5-2 T344D): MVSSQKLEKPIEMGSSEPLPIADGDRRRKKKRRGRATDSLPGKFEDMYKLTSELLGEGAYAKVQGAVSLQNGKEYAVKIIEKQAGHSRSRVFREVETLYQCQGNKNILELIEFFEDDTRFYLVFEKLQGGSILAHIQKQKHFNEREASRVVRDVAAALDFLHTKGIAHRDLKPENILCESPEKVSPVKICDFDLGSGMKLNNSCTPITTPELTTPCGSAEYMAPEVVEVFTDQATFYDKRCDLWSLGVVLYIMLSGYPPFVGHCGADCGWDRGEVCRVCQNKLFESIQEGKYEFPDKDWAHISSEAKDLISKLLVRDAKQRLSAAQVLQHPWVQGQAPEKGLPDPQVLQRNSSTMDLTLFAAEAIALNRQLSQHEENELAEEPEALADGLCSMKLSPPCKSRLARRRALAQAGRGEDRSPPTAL
row,pIC50,SMILES
1,6.69,"CN(C)C(=O)CCN(C)C(=O)c1nc2c(Nc3cc4cn[nH]c4cn3)ncnc2s1 [Example 137, N-[3-(Dimethylamino)-3-oxopropyl]-N-methyl-7-(1H-pyrazolo[3,4-c]pyridin-5-ylamino)[1,3]thiazolo[5,4-d]pyrimidine-2-carboxamide]"
2,7.64,"CN(C)CCN(C)C(=O)c1cc2c(Nc3cc4cn[nH]c4cn3)ncnc2[nH]1 [Example 77, N-[2-(Dimethylamino)ethyl]-N-methyl-4-(1H-pyrazolo[3,4-c]pyridin-5-ylamino)-7H-pyrrolo[2,3-d]pyrimidine-6-carboxamide]"
3,8.23,"C[C@@H]1CN(C(=O)[C@H]2CCc3c(sc4ncnc(Nc5cc6cn[nH]c6cn5)c34)C2)C[C@H](C)O1 [Example 89, [(2R,6S)-2,6-Dimethylmorpholin-4-yl][(7S)-4-(1H-pyrazolo[3,4-c]pyridin-5-ylamino)-5,6,7,8-tetrahydro[1]benzothieno[2,3-d]pyrimidin-7-yl]methanone]"
4,8.44,"CN(C)[C@@H]1CCN(C(=O)[C@H]2CCc3c(sc4ncnc(Nc5cc6cn[nH]c6cn5)c34)C2)C1 [Example 84, [(3R)-3-(Dimethylamino)pyrrolidin-1-yl][(7S)-4-(1H-pyrazolo[3,4-c]pyridin-5-ylamino)-5,6,7,8-tetrahydro[1]benzothieno[2,3-d]pyrimidin-7-yl]methanone]"
